Results published in patent US5152784A, “Prosthetic devices coated with a polypeptide with type IV collagen activity” (Regents of the University of Minnesota, priority 1991, dated 1992).
“Also recorded” adds a separate entry of the source.

Legend:
peptide Hep-III = biological target: T1, peptide Hep-III (Homo sapiens, UniProt P02462); assay: Competition of 3H-heparin binding to coated peptide Hep-III by glycosaminoglycans; conditions: Hep-III coated from 500 μg/ml; 3H-heparin 50,000 cpm per well; unlabeled glycosaminoglycan in increasing amounts
T1 construct: residues 531-543 from the amino-terminus of the α1 chain of type IV collagen; The single letter amino acid code for this polypeptide is GEFYFDLRLKGDK; made in house; host or cells: chemical solid-phase (Merrifield) peptide synthesis
Protocol: To check the specificity of the interaction between heparin and peptide Hep-III or whether the heparin structure was also critical to this interaction, heparin along with other sulfated glucosaminoglycans, dextran and chondroitin sulfate were used in competition experiments. A standard amount of […] of a solution containing 500 μg/ml of peptide Hep-III was coated on 96-well plates as described above. Wells were treated for two hours with 2 mg/ml BSA in wash buffer. Then, a final volume of 50 μl was added to each well, containing a standard amount of ^3 H-heparin (50,000 cpm per well) and various amounts of non-radioactive heparin, dextran or chondroitin sulfate. After incubating for two hours at 37° C., the wells were washed and radioactivity was counted as described above in Example 1.

melanoma cell line (M4) = assay: Inhibition of melanoma cell adhesion to type IV collagen-coated wells by peptide in solution; type: cell-based, murine; conditions: cells coincubated 20 min with peptide in solution, then 20 min on collagen-coated wells
Protocol: Cells were grown, labeled and harvested as described in Example 4, but after detachment and washing they were coincubated for 20 min. in the presence of various concentrations of peptide Hep-III in solution. They were then applied for another 20 min. on type IV collagen-coated plastic wells. At the end of the incubation the same treatment described in Example 4 was used.

endothelial cells [1] = assay: Direct binding of 125I-labeled peptide Hep-III to endothelial cell surface; set-up: species or system bovine; conditions: about 5,000 cells; 15 min, 4° C.; increasing peptide concentrations
Protocol: (§1) Endothelial and melanoma cells were grown in culture as described in Examples 4, 5, and 6 (supra). Cells used for this type of experiment were not labeled with radioactivity. Unlabeled cells were harvested by trypsinization (supra) on the day of the experiment. About 5,000 cells were mixed with 50 μl of a given concentration of peptide Hep-III in solution. Increasing concentrations of peptide Hep-III were used. The cells were incubated with the iodinated peptide for 15 min. at 4° C. and they were then pelleted by centrifugation. The cells were then resuspended and washed 3 times with DMEM containing 2 mg/ml BSA and 50 mM Hepes. Following the washes, the cells were pelleted for a final time in plastic tubes, the supernatant was decanted and the radioactivity of the pellet was quantitated in a Beckman scintillation counter. The binding of peptide Hep-III to endothelial cells is saturable (FIG. 10B)--an indication of specificity. […] These experiments indicate that peptide Hep-III specificity interacts with the surfaces of both endothelial cells and melanoma.

melanoma cells [2] = assay: Inhibition of 125I-Hep-III binding to melanoma cell surface by excess unlabeled peptide; set-up: species or system murine; conditions: unlabeled peptide up to 500-fold excess; 15 min, 4° C.
Protocol: (§2) Melanoma and endothelial cells were grown in culture as discussed in Examples 4, 5, 6, and 7A (supra). On the day of the experiment, the cells were harvested by trypsinization (supra) and were co-incubated with 50 μl of peptide Hep-III. 50 μl a constant amount of ^125 I-labeled peptide Hep-III was mixed with increasing concentrations of unlabeled peptide Hep-III or a control peptide (maximal excess of unlabeled peptide: 500-fold over radiolabeled Hep-III). 50 μl of each concentration of unlabeled peptide which was mixed with radiolabeled Hep-III were then added to cells in suspension (5,000 cells per concentration of peptide). The cells were incubated with the mixture of unlabeled-radiolabeled peptide for 15 min. at 4° C. and they were then pelleted. The cells were subsequently washed and bound radioactivity was quantitated as described in Example 7A. […] These experiments provide confirmation that a specific interaction occurs between melanoma and endothelial-cell surfaces and peptide Hep-III.

melanoma cells [3] = assay: Direct binding of 125I-labeled peptide Hep-III to melanoma cell surface; set-up: species or system murine; conditions: about 5,000 cells; 15 min, 4° C.; increasing peptide concentrations
Protocol: as §1

K-1735-M4 melanoma cells = assay: Adhesion of melanoma cells to peptide-coated wells; type: cell-based, murine; conditions: 120 minutes, 37° C.
Description: Highly metastatic murmine melanoma cells, K-1735-M4 were originally provided by Dr. I. J. Fidler of Anderson Hospital, University of Texas Health Sciences Center, Houston, Tex. When the cells were received, a large number of early passage cells were propagated and frozen in liquid nitrogen. The tumor cells are usually cultured in vitro for no longer than six weeks. Following this period, the cells are discarded and new cells withdrawn from storage for use in further in vitro or in vivo experiments. This precaution is taken to minimize phenotypic drift that can occur as a result of continuous in vitro passage. The cells were cultured in Dulbecco's Modified Eagle's Medium containing 5% heat inactivated fetal calf serum. The cultures were grown in 37° C. incubators with a humidified atmosphere containing 5% CO2. Cells were subcultured twice weekly by releasing cells gently from the flask, using 0.05% trypsin and 1 mM EDTA.
Cultures of cells which were 60-80% confluent were metabolically labeled for 24 hours with the addition of 3 mCi/ml of ^3 H-td (tritiated thymidine). On the day of the assay, the cells were harvested by trypsinization, the trypsin was inhibited by the addition of serum, and the cells were washed free of this mixture and resuspended in DMEM buffered with HEPES at pH 7.2. […] The solubilized cells were then quantitated using a liquid scintillation counter. […]

endothelial cells [4] = assay: Inhibition of 125I-Hep-III binding to endothelial cell surface by excess unlabeled peptide; set-up: species or system bovine; conditions: unlabeled peptide up to 500-fold excess; 15 min, 4° C.
Protocol: as §2

[5] = tested on: Bovine aortic endothelial cells; assay: Direct adhesion of endothelial cells to peptide-coated plastic; type: cell-based; conditions: coated at increasing concentrations; 120 min, 37° C.
Protocol: Bovine aortic endothelial cells were isolated according to the following protocol. Aortas were obtained from a local slaughterhouse, washed in cold phosphate buffered saline (PBS) (136 mM NaCl, 2.6 mM KCl, 15.2 mM Na2 HPO4, pH 7.2) and processed within 2 hours. Crude collagenase (CLS III, 125-145 units per mg dry weight, Cooper Biomedical) was used at 2 mg/ml in Dulbecco's modified Eagle's medium (DMEM) (GIBCO). The vessel was clamped at the distal end, filled with the collagenase-PBS solution and digestion was carried out for 10 minutes. The lumenal contents were harvested, followed by the addition of fresh collagenase for two additional 10-minute periods. The enzyme-cell suspensions were added to an equal volume of DMEM containing 10% fetal bovine serum (FBS) to inhibit the enzyme and spun in a centrifuge at 400×g for 10 minutes. The resulting cell pellet was resuspended in DMEM containing 10% FBS, 100 units/ml of penicillin G, 100 μg/ml of streptomycin and 100 μg/ml of crude fibroblast growth factor. Cells are in 75 cm^2 flasks in a humidified 5% CO2 atmosphere at 37° C. Cultures were fed twice a week with the same medium and cells were used in assays when approximately 75% confluent. The cells were labeled for 24 hours prior to use with a mixture of ^35 S-labeled amino acids (3 mCi). […]

[6] = Heparin binding to plastic plates coated with peptide
Protocol: The ability of the synthesized peptide Hep-III to interact with heparin when coated on 96-well plastic plates was evaluated. Stock solutions of peptide Hep-III at a concentration of 500 μg/ml were prepared in phosphate-buffered saline containing 0.02% sodium azide. Fifty μl from each concentration was coated on the 96-well plates and left to dry overnight at 28° C. Then, wells were treated for two hours with […] of 2 mg/ml BSA and 6 mM phosphate, 10 mM NaCl, 68 μM CaCl2, pH 6.8 (wash buffer) in order to minimize non-specific binding. Next 50 μl of ^3 H-heparin (10 μg/ml) was added at increasing concentrations (0 to 1400 ng/well) for two hours at 37° C. The wells were then washed three times with wash buffer containing 0.05% Triton X-100 and finally they were incubated for thirty minutes at 60° C. with 200 μl of 0.5N NaOH and 1% SDS. The amount of ^3 H-heparin bound at each concentration was quantitated with a Beckman LS-3801 liquid scintillation counter. […] Comparison with data obtained using exactly the same methodology indicate that peptide Hep-III is at least 10 times stronger than peptide Hep-I (TS-2 in U.S. Pat. No. 4,876,332) (see FIG. 5B) and about 100 times stronger than type IV collagen, when used in the same coating concentrations.

type IV collagen = biological target: T2, type IV collagen (Homo sapiens, UniProt P02462+P08572); assay: Inhibition of 3H-heparin binding to type IV collagen coated on plastic by peptide in solution; conditions: peptide in solution 0.5 mg/ml to 5 μg/ml; 3H-heparin 500 ng per well; type IV collagen coated at 60 μg/ml
T2 construct: intact, native type IV collagen coated on plastic
T2 sequence (P02462 173-1669): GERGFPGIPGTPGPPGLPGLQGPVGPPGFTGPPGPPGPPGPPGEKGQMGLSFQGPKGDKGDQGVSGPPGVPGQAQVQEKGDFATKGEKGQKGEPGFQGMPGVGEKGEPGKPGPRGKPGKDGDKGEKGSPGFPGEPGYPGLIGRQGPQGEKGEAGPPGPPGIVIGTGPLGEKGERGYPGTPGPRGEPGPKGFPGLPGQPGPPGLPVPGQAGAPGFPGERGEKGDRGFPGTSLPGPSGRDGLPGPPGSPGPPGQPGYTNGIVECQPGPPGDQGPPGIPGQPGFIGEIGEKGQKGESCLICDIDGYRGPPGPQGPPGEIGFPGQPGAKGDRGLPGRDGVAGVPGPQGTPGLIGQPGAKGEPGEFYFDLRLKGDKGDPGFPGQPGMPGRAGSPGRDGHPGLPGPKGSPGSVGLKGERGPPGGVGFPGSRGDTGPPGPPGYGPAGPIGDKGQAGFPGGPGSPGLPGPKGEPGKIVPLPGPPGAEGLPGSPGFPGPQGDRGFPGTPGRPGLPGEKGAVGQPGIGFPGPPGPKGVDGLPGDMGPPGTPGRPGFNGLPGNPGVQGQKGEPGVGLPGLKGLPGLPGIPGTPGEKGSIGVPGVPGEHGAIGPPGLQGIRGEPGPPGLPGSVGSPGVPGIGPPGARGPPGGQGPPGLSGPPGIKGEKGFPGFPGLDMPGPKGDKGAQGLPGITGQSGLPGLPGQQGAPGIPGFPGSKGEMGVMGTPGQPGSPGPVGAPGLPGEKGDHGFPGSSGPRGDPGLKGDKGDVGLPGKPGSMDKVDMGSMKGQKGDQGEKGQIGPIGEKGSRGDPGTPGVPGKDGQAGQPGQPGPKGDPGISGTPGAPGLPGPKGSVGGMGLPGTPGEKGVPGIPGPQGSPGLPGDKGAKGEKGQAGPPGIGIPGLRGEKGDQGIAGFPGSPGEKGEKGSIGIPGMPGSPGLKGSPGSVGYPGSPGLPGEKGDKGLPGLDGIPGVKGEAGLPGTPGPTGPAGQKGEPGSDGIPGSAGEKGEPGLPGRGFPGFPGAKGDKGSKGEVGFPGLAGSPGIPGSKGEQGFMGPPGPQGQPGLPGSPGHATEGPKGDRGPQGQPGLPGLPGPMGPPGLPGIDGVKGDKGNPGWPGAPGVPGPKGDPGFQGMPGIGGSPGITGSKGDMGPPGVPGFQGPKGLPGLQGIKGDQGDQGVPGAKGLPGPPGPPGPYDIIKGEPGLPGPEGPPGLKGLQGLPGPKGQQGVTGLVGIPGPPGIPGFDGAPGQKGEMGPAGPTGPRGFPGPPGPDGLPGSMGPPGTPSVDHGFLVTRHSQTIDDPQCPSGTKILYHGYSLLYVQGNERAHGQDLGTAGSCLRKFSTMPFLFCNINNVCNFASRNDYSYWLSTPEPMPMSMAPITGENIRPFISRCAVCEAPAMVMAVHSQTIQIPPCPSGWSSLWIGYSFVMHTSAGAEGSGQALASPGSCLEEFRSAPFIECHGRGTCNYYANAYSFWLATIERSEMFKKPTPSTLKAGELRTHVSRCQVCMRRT
T2 sequence (P08572 184-1712): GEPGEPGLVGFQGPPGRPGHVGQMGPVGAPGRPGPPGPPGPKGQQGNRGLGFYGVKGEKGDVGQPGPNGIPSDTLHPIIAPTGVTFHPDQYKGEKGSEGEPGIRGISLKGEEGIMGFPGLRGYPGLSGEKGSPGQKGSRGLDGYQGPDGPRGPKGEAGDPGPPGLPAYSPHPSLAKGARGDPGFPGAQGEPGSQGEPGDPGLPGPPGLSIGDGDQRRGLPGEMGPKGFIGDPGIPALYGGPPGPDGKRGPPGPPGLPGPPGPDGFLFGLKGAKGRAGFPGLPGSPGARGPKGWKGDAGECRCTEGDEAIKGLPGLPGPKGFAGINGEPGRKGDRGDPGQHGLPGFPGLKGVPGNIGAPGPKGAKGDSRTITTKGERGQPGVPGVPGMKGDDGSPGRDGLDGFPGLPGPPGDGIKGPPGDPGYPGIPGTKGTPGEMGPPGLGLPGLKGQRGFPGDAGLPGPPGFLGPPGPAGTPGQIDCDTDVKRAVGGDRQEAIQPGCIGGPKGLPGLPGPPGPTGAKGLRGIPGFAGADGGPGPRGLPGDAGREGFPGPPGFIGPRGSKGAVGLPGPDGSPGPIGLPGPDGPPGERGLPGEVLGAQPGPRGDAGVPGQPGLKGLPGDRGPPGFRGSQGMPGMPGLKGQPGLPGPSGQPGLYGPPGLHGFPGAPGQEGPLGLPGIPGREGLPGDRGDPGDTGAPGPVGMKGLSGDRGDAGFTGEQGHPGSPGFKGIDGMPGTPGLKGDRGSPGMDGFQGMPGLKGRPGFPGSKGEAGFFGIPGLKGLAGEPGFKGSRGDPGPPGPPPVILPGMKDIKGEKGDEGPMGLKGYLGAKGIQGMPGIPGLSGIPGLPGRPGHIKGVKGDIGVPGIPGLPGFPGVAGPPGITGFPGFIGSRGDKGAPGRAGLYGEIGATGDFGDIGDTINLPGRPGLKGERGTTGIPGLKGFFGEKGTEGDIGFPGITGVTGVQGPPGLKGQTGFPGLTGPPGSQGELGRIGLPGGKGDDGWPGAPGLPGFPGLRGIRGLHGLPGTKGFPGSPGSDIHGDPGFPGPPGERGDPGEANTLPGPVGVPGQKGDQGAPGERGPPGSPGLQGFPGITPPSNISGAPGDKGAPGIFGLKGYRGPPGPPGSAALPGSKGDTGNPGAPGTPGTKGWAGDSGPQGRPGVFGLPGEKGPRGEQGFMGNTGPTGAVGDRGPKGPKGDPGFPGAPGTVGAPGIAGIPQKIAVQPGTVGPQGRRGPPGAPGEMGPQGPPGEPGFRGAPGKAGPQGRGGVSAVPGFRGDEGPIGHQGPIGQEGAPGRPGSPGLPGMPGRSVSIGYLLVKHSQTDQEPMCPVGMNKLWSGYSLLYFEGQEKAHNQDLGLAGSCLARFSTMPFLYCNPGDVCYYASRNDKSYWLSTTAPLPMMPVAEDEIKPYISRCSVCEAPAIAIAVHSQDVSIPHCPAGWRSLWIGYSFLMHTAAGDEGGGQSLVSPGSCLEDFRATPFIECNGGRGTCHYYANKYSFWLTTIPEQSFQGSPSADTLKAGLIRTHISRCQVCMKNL
Protocol: Peptide Hep-III in solution (and not absorbed to plastic), was screened for the ability to inhibit the binding of heparin to intact, native type IV collagen coated on plastic. This experimental approach avoids problems due to differential coating of peptides in heparin binding assays. Type IV collagen at 60 μg/ml in PBS was coated on 96-well plates, using 50 μl per well and dried overnight at 28° C. The wells were then treated for two hours with 2 mg/ml BSA in wash buffer (described above in Example 1). Peptide Hep-III at various dilutions ranging from 0.5 mg/ml to 5 μg/ml in PBS and CHAPS (cholamido-propyl-dimethyl-ammoniopropane-sulfonate) (a detergent used to avoid non-specific sticking) was co-incubated with a standard amount of ^3 H-heparin (500 ng per well […]) for two hours at 37° C. and the mixture was then transferred to the collagen coated plate (50 μl) and allowed to incubate for another two hours at 37° C. The wells were then washed and radioactivity was counted as described above.

[7] = same methodology, same coating concentrations

dextran
competition for the binding of tritiated heparin to peptide Hep-III (peptide Hep-III): substantially more dextran is needed to achieve similar levels of competition

chondroitin sulfate
competition for the binding of tritiated heparin to peptide Hep-III (peptide Hep-III): cannot mimic this effect except at extremely high concentrations

heparin
competition for the binding of tritiated heparin to peptide Hep-III (peptide Hep-III): able to compete for the binding of tritiated heparin to peptide Hep-III at very low concentrations

gly-glu-phe-tyr-phe-asp-leu-arg-leu-lys-gly-asp-lys (GEFYFDLRLKGDK) [Hep-III, …; type IV collagen residues 531-543 from the amino-terminus of the α1 chain]
decrease of melanoma cell binding to type IV collagen-coated substrata (melanoma cell line (M4)): dramatically decrease the binding of melanoma cells
binding of 125I-labeled peptide to endothelial cell surface (endothelial cells [1]): saturable
competition of radiolabeled Hep-III binding to melanoma cells by unlabeled peptide (melanoma cells [2]): can be competed only by an excess of unlabeled peptide Hep-III
binding of 125I-labeled peptide to melanoma cell surface (melanoma cells [3]): with a tendency for saturation at the higher concentrations used
maximal melanoma cell adhesion (K-1735-M4 melanoma cells; peptide coated at increasing concentrations): 70,000 dpm
melanoma cell adhesion (K-1735-M4 melanoma cells; peptide concentration 0.5 μg/well): 80 % of input
competition of radiolabeled Hep-III binding to endothelial cells by unlabeled peptide (endothelial cells [4]): could efficiently compete
endothelial cell adhesion to coated substrate (in words) [5]: promotes substantial adhesion of endothelial cells even at very low plating concentrations
binding of 3H-heparin to coated peptide ([6]; peptide coated on 96-well plastic plates, 3H-heparin 0 to 1400 ng/well, 2 h, 37° C.): extremely potent promoter of heparin-binding to synthetic substrates; also recorded: strong binding to heparin; also recorded: very potent binder of heparin
heparin binding strength relative to peptide Hep-I (TS-2) [6, 7]: at least 10 times
heparin binding strength relative to type IV collagen [6, 7]: about 100 times
inhibition of heparin binding to type IV collagen (type IV collagen): strong inhibitor of heparin binding to type IV collagen
